Assays:
SNU1 = test: 3H thymidine uptake assay, gastric cancer cells; type: cell-based; details: SNU1, various concentrations, FIG. 4
HepG2 = test: 3H thymidine uptake assay, liver cancer cells; type: cell-based; details: HepG2, various concentrations, 72 hr, FIG. 3
Method: The inhibitory effect of theobromine on the proliferation of liver cancer cells was examined by using ^3H thymidine uptake assay (Marshall, E. S. et al. European J. Cancer, 30A: 1370-1376, 1994). HepG2 was used as liver cancer cells. The HepG2 liver cancer cells were cultured in RPMI-1640 media with 10% FBS, 100 IU/mL of penicillin and 100 μg/mL of streptomycin, in a 37° C. incubator with 5% CO2 (Forma Scientific Co., Marjetta, Ohio, USA). The media were purchased from GIBCO BRL (Grand Island, N.Y., USA). Thus cultured HepG2 liver cancer cells were transferred to 96 well plates, each of which contains 2×10^4 cells and were added with various concentrations of theobromine obtained from the reference examples 1-3 and were cultured for 72 hr. Six hours prior to recovery of the above cells, each well was added with 1 μCi of ^3H-Thymidine (Sigma, St. Louis, Mo., USA). After completion of the culture, the cells were recovered into a glass fiber filter (Brandel Inc., Gaithersburg, Mass., USA) by using a recovery instrument (Cambridge Scientific Inc., Cambridge, Mass., USA). The incorporation of ^3H-thymidine of recovered cells after combining with 3 mL of scintillation cocktail solution (Wallac, Turku, Finland) was examined in a liquid scintillation counter (Wallac, Turku, Finland). The whole process was repeated three times according to the above method.

WB-F344 cells = test: Scrape Loading/Dye Transfer (SL/DT) assay: suppression of gap junction channel by H2O2; type: cell-based; details: 200 μM theobromine, 400 μM H2O2, WB-F344 rat liver epithelial cells, Lucifer Yellow, FIG. 1
Method: The effect of theobromine on the suppression of gap junction channel induced by H2O2 was examined according to a known method of Scrape Loading/Dye Transfer (SL/DT) assay (Upham, B. L., Kang, K. S., Cho, H. Y., & Trosko, J. E., Carcinogenesis, 18: 37-42, 1997), as further explained below.
WB-F344 cells were used as a liver cell in order to examine its inhibitory effect on the suppression of gap junction channel in liver cells. The above liver cells were cultured in a MEM-media with 10% FBS, added with 100 IU/mL of penicillin and 100 μg/mL of streptomycin, in an incubator at 37° C. with 5% CO2 (Forma Scientific Co., Marjetta, Ohio, USA). The media compositions used in the above culture were purchased from GIBCO BRL (Grand Island, N.Y., USA). Thus cultured liver cells in media were transferred to each 2 mL petri dish (1×10^5 cells/mL) and cultured for 44 hr. Then the above culturing media were replaced with fresh media with various concentrations of theobromine while the control group was also replaced with fresh media only. Four hours after that, the media were treated theobromine with various concentrations 400 μM by H2O2 together while the control group was replaced with fresh medial. […]

SNUC2A = test: 3H thymidine uptake assay, colon cancer cells; type: cell-based; details: various concentrations, FIG. 5
[1] = type: in vivo; details: 0.5 g/kg, in DMSO diluted in water, observed for 7 days
Method: The toxicity of theobromine of the present invention was performed as follows.

Structure (SMILES): Cn1cnc2c1c(=O)[nH]c(=O)n2C [theobromine]
- inhibition rate of DNA synthesis of gastric cancer cells (SNU1): increased in a dose-dependent manner
- inhibition rate of DNA synthesis of liver cancer cells (HepG2): increased in a dose-dependent manner
- inhibition of the suppression of gap junction channel by H2O2 (WB-F344 cells): completely inhibit the suppression of gap junction channel
- inhibition rate of DNA synthesis of colon cancer cells (SNUC2A): increased in a dose-dependent manner
- survival [1]: all mice survived
